Measurements as given in patent US20180289008A1, “METHODS FOR WILDFIRE CONTROL, INVASIVE PLANT CONTROL, AND RESIDUAL CONTROL OF INVASIVE PLANTS” (priority 2017, published 2018).
“And” between values parts separate entries of the source, which are not always exact repeats. Equal values may be shown once. Read-outs that look alike come from different tables or passages of the source.

How the values were obtained:
Test in all cases: Greenhouse pre-emergence dose-response bioassay (GR50)
Type in all cases: in vivo
[1] = system: Diffuse knapweed (Centaurea diffusa)
Excerpt: (§1) A greenhouse experiment was designed to determine if the extended control of Dalmatian toadflax and downy brome provided by indaziflam in the field was due to increased residual seedling control. This experiment was designed to compare indaziflam's pre-emergence efficacy to the currently recommended herbicides (aminocyclopyrachlor and aminopyralid) for annual, biennial, and perennial weed control in non-crop areas. […] This allows for direct comparisons between herbicides on an active ingredient basis for aminopyralid, aminocyclopyrachlor, and indaziflam.
(§2) For the greenhouse bioassay, seeds were planted at a constant depth of 0.5 cm in 13- by 9- by 6-cm plastic containers, filled with an Otero sandy clay loam field soil (Coarse-loamy, mixed (calcareous), mesic Aridic Ustorthents) with 3.9% OM and pH 7.7. Seeding densities were adjusted based on germinability to reach a target density of 40 plants/pot. Plants were maintained in a greenhouse with a 25/20° C. day/night temperature with natural light supplemented with high-intensity discharge lamps to give a 15-h photoperiod. Plants were sub-irrigated as needed and misted overhead daily to reduce soil crusting.
(§3) The greenhouse experiment was a completely randomized design with a factorial of seven herbicide rates and a non-treated control with three replicates per treatment. The experiments were conducted at two different times. A preliminary greenhouse study was conducted for each herbicide and species to determine a range of doses that would best fit a logistic regression. It is not unusual for both pre-emergence and post-emergence herbicides to provide control at lower than labeled rates, e.g., 0.5-560 g ai ha^−1 (aminocyclopyrachlor), 0.9-224 g ai ha^−1 (aminopyralid), and 0.05-11.7 g ai ha^−1 (indaziflam) in the greenhouse with ideal environmental conditions, so it was not surprising that herbicide doses for the regression analysis were much lower than recommended field use rates. Herbicides were applied pre-emergence using a Generation III research track sprayer (DeVries Manufacturing, Hollandale, Minn.) equipped with a TeeJet 8002 EVS flat-fan spray nozzle (TeeJet Spraying Systems Co., Wheaton, Ill.) at 187 L·ha-1 at 172 kPa.
(§4) Plants were harvested at the soil surface approximately 4 to 5 week-after-treatment (WAT) depending on the growth stage of each species. Weights were recorded after samples were dried for 5 days at 60° C. Percent dry weight reduction was calculated relative to the non-treated control plants for each treatment.
(§5) Data from the greenhouse dose-response experiment were first analyzed using the PROC MIXED method in SAS 9.3 with treatment as a fixed effect and experiment and replicate as random effects (SAS Institute 2010). Based on a non-significant homogeneity of variance (ANOVA) and experiment-by-herbicide rate interaction, results from the repeated experiments were pooled. The treatment effect was significant, therefore, nonlinear regression in Graphpad Prism 7.00 (GraphPad Software, La Jolla Calif. USA) was used to describe the response of the nine weed species to aminocyclopyrachlor, aminopyralid, and indaziflam. The herbicide concentrations resulting in 50% reduction in plant biomass (GR50) compared to the non-treated control were determined for each invasive weed species using four-parameter log-logistic regression. The equation used to regress herbicide concentration with percent reduction in plant dry biomass as compared to the non-treated control was:
(§6) where C and D represent the lower and upper limits of the dose-response curve, respectively, and b represents the slope of the best-fitting curve through the GR50 value. For curve fitting and GR50 estimation, the model was constrained to a maximum of 100 and minimum of 0. Mean separation of herbicide GR50 values were analyzed by Fisher's Protected LSD test at the 5% level of probability. […]

[2] = system: Curly dock (Rumex crispus)
Excerpt: as §1, §2, §3, §4, §5, §6

[3] = system: Dalmatian toadflax (Linaria dalmatica)
Excerpt: as §1, §2, §3, §4, §5, §6

[4] = system: Musk thistle (Carduus nutans)
Excerpt: as §1, §2, §3, §4, §5, §6

[5] = system: Common teasel (Dipsacus fullonum)
Excerpt: as §1, §2, §3, §4, §5, §6

[6] = system: Halogeton (Halogeton glomeratus)
Excerpt: as §1, §2, §3, §4, §5, §6

[7] = system: downy brome (Bromus tectorum)
Excerpt: as §1, §2, §3, §4, §5, §6

[8] = system: Marestail (Conyza Canadensis)
Excerpt: as §1, §2, §3, §4, §5, §6

[9] = system: Common mullein (Verbascum thapsus)
Excerpt: as §1, §2, §3, §4, §5, §6

Cc1ccc2c(c1)[C@H](Nc1nc(N)nc(C(C)F)n1)[C@@H](C)C2 (mixture of isomers) [Indaziflam, N2-[(1R,2S)-2,3-dihydro-2,6-dimethyl-1H-inden-1-yl]-6-[(1RS)-1-fluoroethyl]-1,3,5-triazine-2,4-diamine]
GR50 ratio Aminocyclopyrachlor/Indaziflam [1]: 10.69
GR50 ratio Aminopyralid/Indaziflam [1]: 4 and 4.31
GR50 (herbicide dose resulting in 50% dry biomass reduction) ([1]; pre-emergence): 0.58 a g ai ha^−1
GR50 ratio Aminocyclopyrachlor/Indaziflam [2]: 19.36
GR50 ratio Aminopyralid/Indaziflam [2]: 1.14
GR50 (herbicide dose resulting in 50% dry biomass reduction) ([2]; pre-emergence): 1.10 a g ai ha^−1
GR50 ratio Aminocyclopyrachlor/Indaziflam [3]: 19.33
GR50 ratio Aminopyralid/Indaziflam [3]: 246.67
GR50 ratio Aminocyclopyrachlor/Indaziflam ([3]; listed as indaziflam): 19
GR50 ratio Aminopyralid/Indaziflam ([3]; listed as indaziflam): 247
GR50 (herbicide dose resulting in 50% dry biomass reduction) ([3]; pre-emergence): 0.06 a g ai ha^−1
GR50 ratio Aminocyclopyrachlor/Indaziflam [4]: 3.79
GR50 ratio Aminopyralid/Indaziflam [4]: 0.94
GR50 (herbicide dose resulting in 50% dry biomass reduction) ([4]; pre-emergence): 0.33 a g ai ha^−1
GR50 ratio Aminocyclopyrachlor/Indaziflam [5]: 5.18
GR50 ratio Aminopyralid/Indaziflam [5]: 0.56
GR50 (herbicide dose resulting in 50% dry biomass reduction) ([5]; pre-emergence): 1.33 b g ai ha^−1
GR50 ratio Aminocyclopyrachlor/Indaziflam [6]: 2.89
GR50 ratio Aminopyralid/Indaziflam [6]: 9 and 8.64
GR50 (herbicide dose resulting in 50% dry biomass reduction) ([6]; pre-emergence): 0.36 a g ai ha^−1
GR50 ratio Aminocyclopyrachlor/Indaziflam [7]: 144.62
GR50 ratio Aminopyralid/Indaziflam [7]: 98.72
GR50 ratio Aminocyclopyrachlor/Indaziflam ([7]; listed as indaziflam): 125
GR50 ratio Aminopyralid/Indaziflam ([7]; listed as indaziflam): 99
GR50 (herbicide dose resulting in 50% dry biomass reduction) ([7]; pre-emergence): 0.39 a g ai ha^−1
GR50 ratio Aminocyclopyrachlor/Indaziflam [8]: 12.29
GR50 ratio Aminopyralid/Indaziflam [8]: 5 and 4.71
GR50 (herbicide dose resulting in 50% dry biomass reduction) ([8]; pre-emergence): 0.17 a g ai ha^−1
GR50 ratio Aminocyclopyrachlor/Indaziflam [9]: 44.57
GR50 ratio Aminopyralid/Indaziflam [9]: 106 and 106.43
GR50 (herbicide dose resulting in 50% dry biomass reduction) ([9]; pre-emergence): 0.07 a g ai ha^−1
